“And” between values parts separate entries of the source, which are not always exact repeats. Equal values may be shown once.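 These data come from cells grown in 96-well plates and exposed to compound for 48 hours at five concentrations. GI50 is the concentration that inhibits growth by half. TGI: concentration producing complete growth inhibition.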
Experiments:
Test in all cases: NCI tumour cell line growth inhibition, 48 h
[1] = system: CCRF-CEM leukemia
[2] = system: SNB-19 CNS
[3] = system: UACC-62 melanoma
[4] = system: NCI-H23 lung
[5] = system: UO-31 renal
[6] = system: SK-MEL-28 melanoma
[7] = system: NCI-H226 lung
[8] = system: U251 CNS
[9] = system: OVCAR-4 ovarian
[10] = system: M14 melanoma

SMILES	TGI [1]	TGI [2]	TGI [3]	TGI [4]	TGI [5]	TGI [6]	TGI [7]	TGI [8]	TGI [9]	TGI [10]	GI50 [2]	GI50 [3]	GI50 [4]	GI50 [5]	GI50 [6]	GI50 [7]	GI50 [8]	GI50 [10]	GI50 [1]	GI50 [9]
Clc1cc(Cl)cc(C2SCc3nc4ccccc4n32)c1 (stereo not given)	70.6 µM	66.9 µM	> 100 µM	45.4 µM	43.5 µM	36.1 µM	37.3 µM	34.2 µM	–	–	–	–	–	–	–	–	–	–	–	–
CCCCN1C(=O)C2c3[nH]c4ccccc4c3C3CCCCC3C2C1=O (mixture of isomers)	37.5 µM	64.2 µM	79.3 µM	78.1 µM	47.5 µM	> 100 µM	–	36.3 µM	8.22 µM	42.8 µM	–	–	–	–	–	–	–	–	–	–
O=C(NCCN1CCOCC1)Nc1nc2ccc(Sc3nnc4ccc(-c5ccc(F)cc5)nn34)cc2s1	> 100 µM	> 100 µM	21.4 µM	> 100 µM	> 100 µM	–	> 100 µM	–	–	> 38.8 µM	2.8 µM	6.16 µM	> 100 µM	> 100 µM	2.59 µM	3.67 µM	–	–	–	–
COC1=CC(=O)c2c(O)c3c(c(O)c2C1=O)OC1(Oc2c(cc4cc(C)oc(=O)c4c2O)CC1O)C3O (stereo not given)	> 100 µM	62.4 µM	> 100 µM	> 100 µM	> 100 µM	> 100 µM	–	> 100 µM	67.5 µM	> 100 µM	–	–	–	–	–	–	–	–	–	–
O=C1/C(=N/N=C(c2ccccc2)c2ccccc2)c2ccccc2-c2ccccc21	–	> 100 µM	> 100 µM	> 100 µM	> 100 µM	> 100 µM	> 100 µM	> 100 µM	> 100 µM	> 100 µM	–	–	–	–	–	–	–	–	–	–
N#CC1=C(c2ccccc2)NN(Cc2ccccc2)C(c2ccc(Cl)cc2)CC1=O (stereo not given)	> 100 µM	72.8 µM	–	> 100 µM	–	> 100 µM	> 100 µM	38.2 µM	75.9 µM	–	–	–	–	–	–	–	–	–	–	–
O=c1/c(=C/c2ccccc2O)sc2nc3ccccc3n12	45.6 µM	> 100 µM	80.6 µM	> 100 µM	> 100 µM	71.6 µM	> 100 µM	–	> 100 µM	> 100 µM	–	–	–	–	–	–	–	–	–	–
C=CCNC(=O)ON1C(=O)CCC1=O	> 100 µM	> 100 µM	> 100 µM	> 100 µM	> 100 µM	> 100 µM	–	> 100 µM	> 100 µM	> 100 µM	–	–	–	–	–	–	–	–	–	–
C/C(=N\NC(=O)C[n+]1ccccc1)c1sc(-c2nc(C)c(/C(C)=N/NC(=O)C[n+]3ccccc3)s2)nc1C	–	> 100 µM	> 100 µM	> 100 µM	> 100 µM	> 100 µM	> 100 µM	> 100 µM	–	> 100 µM	–	–	–	–	–	–	–	–	–	–
CCOC(=O)NC(=O)c1cn(CC(=O)NCC(=O)NCC(=O)N2CCN(CCn3c(C)nc(C(N)=O)c3N)CC2)c(=O)[nH]c1=O	> 100 µM	> 100 µM	> 100 µM	> 100 µM	> 100 µM	> 100 µM	–	> 100 µM	–	> 100 µM	–	–	–	–	–	–	–	–	–	–
CCOc1cccc2sc(N)nc12	–	> 100 µM	> 100 µM	> 100 µM	> 100 µM	> 100 µM	> 100 µM	> 100 µM	> 100 µM	> 100 µM	–	–	–	–	–	–	–	–	–	–
COc1cccc(-c2cc(=O)c3cc(C)c(C)c(C(=O)O)c3o2)c1	> 100 µM	> 100 µM	> 100 µM	> 100 µM	> 100 µM	> 100 µM	–	> 100 µM	> 100 µM	> 100 µM	–	–	–	–	–	–	–	–	–	–
COc1ccc2c3c(ccc2c1)NC(C(=O)O)CC3 (stereo not given)	–	> 100 µM	> 100 µM	> 100 µM	> 100 µM	> 100 µM	> 100 µM	> 100 µM	> 100 µM	> 100 µM	–	–	–	–	–	–	–	–	–	–
CC(C)COC(=O)N1N=NC2C3CC(=O)C(O3)C21 (stereo not given)	> 100 µM	> 100 µM	> 100 µM	> 100 µM	> 100 µM	> 100 µM	–	> 100 µM	> 100 µM	> 100 µM	–	–	–	–	–	–	–	–	–	–
COc1ccc(-c2cnc(SCC(=O)c3c(C)n(C)n(-c4ccccc4)c3=O)n2-c2ccc(OC)cc2)cc1	–	> 50 µM	> 50 µM	> 50 µM	> 50 µM	> 50 µM	> 50 µM	> 50 µM	–	> 50 µM	> 50 µM	> 50 µM	> 50 µM	> 50 µM	> 50 µM	> 50 µM	> 50 µM	35.2 µM	–	–
CN(C)C(=O)C(NCCO)c1ccccc1 (stereo not given)	–	> 100 µM	> 100 µM	> 100 µM	> 100 µM	> 100 µM	> 100 µM	> 100 µM	> 100 µM	> 100 µM	–	–	–	–	–	–	–	–	–	–
CC(C)C[C@H](NC(=O)[C@H](Cc1ccccc1)NC(=O)c1cnccn1)B(O)O	–	–	< 0.0168 µM and 0.00498 µM	0.183 µM and 0.0197 µM	0.0228 µM and 0.0179 µM	–	< 0.01 µM and 0.00206 µM	–	0.179 µM	< 0.0184 µM and 0.0321 µM	–	0.00149 µM	0.00175 µM	0.00193 µM	0.00104 µM	< 0.01 µM and 0.00089 µM	0.00256 µM	0.00322 µM	< 0.01 µM and 0.00104 µM	< 0.0113 µM and 0.00315 µM
N#Cc1c(N)n(C2OC(CO)C(O)C2O)c2ncnc(N)c12 (stereo not given)	1.34 µM	> 84.2 µM	0.0941 µM	0.206 µM	–	0.432 µM	0.372 µM	> 78.2 µM	> 100 µM	0.265 µM	–	–	–	–	–	–	–	–	–	–
C=CC1CC12C(=O)C1OC2(C)C2C(=O)c3c(O)cccc3C(=O)C12 (stereo not given)	> 100 µM	> 100 µM	–	85.6 µM	> 100 µM	> 100 µM	> 100 µM	77.7 µM	–	> 100 µM	87.8 µM	–	26.9 µM	> 100 µM	29.1 µM	45.6 µM	28.7 µM	54.9 µM	26 µM	–
[O-]c1ccccc1[C-]=Nc1ccccc1O.[O-]c1ccccc1[C-]=Nc1ccccc1O.[O]=[U]=[O]	44.4 µM	–	31.1 µM	76.5 µM	–	35.9 µM	–	33.6 µM	46.8 µM	41.7 µM	–	10.4 µM	11.3 µM	–	14 µM	–	11.6 µM	10.2 µM	2.6 µM	12.1 µM
N=C(N)c1ccc(CS(=O)(=O)F)cc1	–	> 100 µM	> 100 µM	> 100 µM	> 100 µM	> 100 µM	> 100 µM	> 100 µM	> 100 µM	> 100 µM	> 100 µM	> 100 µM	> 100 µM	> 100 µM	> 100 µM	> 100 µM	> 100 µM	> 100 µM	–	> 100 µM
CCOC(=O)C1Nc2ccc([N+](=O)[O-])cc2[C@H]2OCC[C@@H]12 (stereo not given in full)	> 100 µM	> 100 µM	> 100 µM	> 100 µM	–	> 100 µM	> 100 µM	> 100 µM	> 100 µM	> 100 µM	–	–	–	–	–	–	–	–	–	–
C[C@]12CC/C(=N\O)C[C@@H]1CC[C@@H]1[C@@H]2CC[C@]2(C)/C(=N/O)CC[C@@H]12	–	> 100 µM	> 100 µM	80.2 µM	78.4 µM	> 100 µM	–	> 100 µM	> 100 µM	55.2 µM	79.5 µM	35.6 µM	45.6 µM	31.5 µM	> 100 µM	–	35.2 µM	23.7 µM	–	56.8 µM
CC(C)(C)c1cc(O)c2c(c1O)C(=O)CCC2	> 100 µM	> 100 µM	80.5 µM	> 100 µM	–	> 100 µM	–	> 100 µM	> 100 µM	> 100 µM	–	–	–	–	–	–	–	–	–	–
COc1ccc(C(=O)OC2C(OC3C(O)COC(O[C@H]4C[C@H]5[C@@H]6CC=C7C[C@@H](O)CC[C@]7(C)[C@H]6CC[C@]5(C)[C@H]4[C@H](C)C(=O)CCC(C)C)C3OC(=O)C(C)C)OCC(O)C2O)cc1 (stereo not given in full)	0.0317 µM	3.97 µM	0.0185 µM	4.67 µM	0.067 µM	0.0612 µM	–	4.16 µM	5.12 µM	0.0389 µM	0.0336 µM	0.00668 µM	0.175 µM	0.0115 µM	0.011 µM	–	0.00381 µM	0.00812 µM	0.00574 µM	0.295 µM
O=C1C2=C(C(=O)c3c(O)ccc(O)c31)N(c1cccnc1)Cc1ccccc1O2	0.513 µM	10.7 µM	0.396 µM	–	0.398 µM	0.644 µM	1.82 µM	2.76 µM	–	0.771 µM	2.6 µM	0.183 µM	–	0.182 µM	0.266 µM	0.703 µM	0.651 µM	0.26 µM	0.0878 µM	–
CN1C(=O)C(C)(C)NS1(=O)=O	> 100 µM	> 100 µM	> 100 µM	> 100 µM	> 100 µM	> 100 µM	–	> 100 µM	> 100 µM	> 100 µM	–	–	–	–	–	–	–	–	–	–
CCOc1ccc(NC(=O)/C(Cc2nc3ccccc3[nH]c2=O)=N\O)cc1	> 100 µM	> 100 µM	> 100 µM	> 100 µM	> 100 µM	> 100 µM	–	> 100 µM	> 100 µM	> 100 µM	–	–	–	–	–	–	–	–	–	–
CC1=CC[C@@H]2[C@@H](CC[C@@]2(C)O)C(C)(C)[C@H]1CC[C@@H]1[C@@]2(C)CC[C@@H](O)C(C)(C)O[C@@H]2CC[C@]1(C)O	–	46.2 µM	31.9 µM	76.2 µM	34.3 µM	35.7 µM	–	39.8 µM	> 100 µM	61.9 µM	–	–	–	–	–	–	–	–	–	–

— PubChem BioAssay (NCI)
